Reference: patent US9914730B2, “Azaquinazoline inhibitors of Atypical protein Kinase C” (Ignyta, Inc., priority 2012, dated 2018)

Biological target: T1, full-length human PKCι (Homo sapiens, UniProt P41743)
T1 construct: Recombinant, full-length human PKCι expressed in Sf21 insect cells is also commercially available; purchased; host or cells: Sf21 insect cells
T1 sequence (P41743 1-596): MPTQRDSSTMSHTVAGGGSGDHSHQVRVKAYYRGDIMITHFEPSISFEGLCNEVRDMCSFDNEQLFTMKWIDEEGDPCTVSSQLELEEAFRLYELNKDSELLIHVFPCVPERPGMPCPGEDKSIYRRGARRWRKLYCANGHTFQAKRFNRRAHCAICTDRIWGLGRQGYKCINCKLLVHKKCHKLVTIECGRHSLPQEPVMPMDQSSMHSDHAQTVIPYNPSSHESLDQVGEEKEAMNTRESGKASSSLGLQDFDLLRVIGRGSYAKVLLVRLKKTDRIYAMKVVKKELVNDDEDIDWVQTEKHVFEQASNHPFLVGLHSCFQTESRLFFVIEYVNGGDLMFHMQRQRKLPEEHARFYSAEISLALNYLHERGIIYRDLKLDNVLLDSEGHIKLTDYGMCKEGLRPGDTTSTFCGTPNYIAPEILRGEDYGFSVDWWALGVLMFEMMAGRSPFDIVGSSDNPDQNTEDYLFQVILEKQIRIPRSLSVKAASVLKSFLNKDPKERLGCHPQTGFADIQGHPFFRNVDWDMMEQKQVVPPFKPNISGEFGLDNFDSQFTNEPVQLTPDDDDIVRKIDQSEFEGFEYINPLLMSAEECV
Experiment: PKCι IC50 IMAP assay, full-length PKCι at 150 μM ATP
Assay type: biochemical
Details: read-out: IC50 in IMAP assay against full length PKCi at 150 μM ATP
Text: Assays are based on the ability of PKCι to phosphorylate a commercially available peptide substrate in vitro. The peptide substrate is FAM-PKCε pseudopeptide derived peptide, and comprises the amino acid sequence 5FAM-[…]-NH2. Recombinant, full-length human PKCι expressed in Sf21 insect cells is also commercially available. Recombinant, kinase-domain human PKCι is expressed and purified in-house.
The procedure below explains how dose response curves for inhibitors of PKCι are obtained. The screen described is for a 384 well format but the assay can be adapted to 1536 or other formats as required.
Compounds to be tested are dissolved in 100% DMSO. Compounds are diluted as required to give a final concentration of 4% DMSO (v/v) in the assay. 1 μl is plated into 384 well black low-binding flat bottomed assay plates which are used immediately. Dilutions and additions of compound to assay plates are carried out using Matrix WellMate® and Matrix PlateMate® Plus liquid handling systems.
On the day of the screen PKCι/substrate working solution, and ATP working solution, are prepared in buffer containing 20 mM tris-HCl pH7.5, 10 mM MgCl2, 0.01% Triton X100, 250 μM EGTA and 1 mM DTT. The final concentration of PKCι used varies depending on the batch of protein but is typically 15 pM. The final concentration of peptide substrate in the assay is 100 nM. ATP is used at a final concentration of 150 μM or 25 μM in the assays containing full-length or kinase-domain PKCι respectively, which corresponds to five times or equal to the KM^APP for ATP for each enzyme, respectively. The final buffer concentration in the assay is 18 mM tris-HCl pH7.5, 9 mM MgCl2, 0.009% Triton X100, 225 μM EGTA and 0.9 mM DTT. Relevant controls are included, namely no compound and no enzyme. 5 μl PKCι/substrate working solution at 30 pM and 200 nM, respectively, is added to the wells, followed by 4 μl ATP working solution at 375 μM or 62.5 μM for full-length or kinase-domain PKCι respectively, using a 16 channel Matrix pipette. The reaction is allowed to incubate for 60 minutes at room temperature, before the reaction is stopped and developed by the addition of 20 μl IMAP™ development reagent (Molecular Devices). IMAP development reagent consists of 0.25% (v/v) IMAP progressive binding reagent, 17% (v/v) IMAP progressive binding buffer A and 3% (v/v) IMAP progressive binding buffer B. The plates are then incubated for 2 hours at room temperature before being read using an appropriate plate reader, for example a Molecular Devices HT Analyst or a BMG Pherastar. Plates are read using a fluorescence polarisation protocol with excitation at 485 nm and emission at 530 nm, and dichroic mirror at 505 nm.
Percentage inhibition values are calculated from fluorescence polarisation values, using the no compound and no enzyme control values as 0% and 100% inhibition, respectively. IC50 determination is performed with ExcelFit software (IDBS) using curve fit 205. Z′ factors are determined for each plate tested and are all above 0.5.

| IC50 [nM] | Compound |
| --- | --- |
| < 100 | Clc1ncc(Cl)c2c(N3CCNCC3)nc(-c3ccncc3)nc12 [Example 134, 1-[5,8-dichloro-2-(pyridin-4-yl)pyrido[3,4-d]pyrimidin-4-yl]piperazine] |
| < 100 | C=Cc1cncc2nc(-c3ccnc(Nc4c(F)cccc4F)c3)nc(N3CCNCC3)c12 [Example 2094, (2,6-Difluoro-phenyl)-[4-(4-piperazin-1-yl-5-vinyl-pyrido[3,4-d]pyrimidin-2-yl)-pyridin-2-yl]-amine] |
| 100 to 1000 | O=C1OCC2CN(c3nc(-c4ccnc(Nc5ccccc5)c4)nc4cncc(C5CC5)c34)CCN12 (stereo not drawn) [Example 525, 7-[5-Cyclopropyl-2-(2-phenylamino-pyridin-4-yl)-pyrido[3,4-d]pyrimidin-4-yl]-hexahydro-oxazolo[3,4-a]pyrazin-3-one] |
| 1000 to 10000 | CSc1nccc2c(NC[C@@H](N)Cc3ccccc3)nc(-c3ccncc3)nc12 [Example 130, N-[(2S)-2-amino-3-phenylpropyl]-8-(methylsulfanyl)-2-(pyridin-4-yl)pyrido[3,4-d]pyrimidin-4-amine] |
| 100 to 1000 | COc1cncc2nc(-c3ccnc(NC(=O)Cc4cccc(Cl)c4)c3)nc(N3CCN(C)CC3)c12 [Example 398, 2-(3-Chloro-phenyl)-N-{4-[5-methoxy-4-(4-methyl-piperazin-1-yl)-pyrido[3,4-d]pyrimidin-2-yl]-pyridin-2-yl}-acetamide] |
| < 100 | C[C@@H]1CN(c2nc(-c3ccnc(Nc4c(F)cccc4F)c3)nc3cncc(C4CC4)c23)C[C@H](C)N1 [Example 843, {4-[5-Cyclopropyl-4-((3R,5S)-3,5-dimethyl-piperazin-1-yl)-pyrido[3,4-d]pyrimidin-2-yl]-pyridin-2-yl}-(2,6-difluoro-phenyl)-amine] |
| 1000 to 10000 | Cc1ccnc(Nc2cc(-c3nc(N[C@@H]4CCNC4)c4ccncc4n3)ccn2)c1 [Example 338, {2-[2-(4-Methyl-pyridin-2-ylamino)-pyridin-4-yl]-pyrido[3,4-d]pyrimidin-4-yl}-(R)-pyrrolidin-3-yl-amine] |
| 100 to 1000 | Brc1cncc2nc(N3CCOCC3)nc(N3CCNCC3)c12 [Example 1015, 5-Bromo-2-morpholin-4-yl-4-piperazin-1-yl-pyrido[3,4-d]pyrimidine] |
| 100 to 1000 | NCc1ccc(-c2nccc3c(NC[C@@H](N)Cc4ccccc4)nc(-c4ccncc4)nc23)o1 [Example 121, N-[(2S)-2-amino-3-phenylpropyl]-8-[5-(amino-methyl)-furan-2-yl]-2-(pyridin-4-yl)pyrido[3,4-d]pyrimidin-4-amine] |
| < 100 | CC1(Nc2nc(-c3ccnc(Nc4ncc(F)cc4F)c3)nc3cncc(C4CC4)c23)CCNCC1 [Example 2174, {5-Cyclopropyl-2-[2-(3,5-difluoro-pyridin-2-ylamino)-pyridin-4-yl]-pyrido[3,4-d]pyrimidin-4-yl}-(4-methyl-piperidin-4-yl)-amine] |
| < 100 | c1ccc(C2(c3cc4c(-c5nc(N6CCNCC6)c6c(C7CCC7)cncc6n5)ccnc4[nH]3)CC2)cc1 [Example 2113, 5-Cyclobutyl-2-[2-(1-phenyl-cyclopropyl)-1H-pyrrolo[2,3-b]pyridin-4-yl]-4-piperazin-1-yl-pyrido[3,4-d]pyrimidine] |
| 1000 to 10000 | COc1cncc2nc(-c3ccnc(Nc4c(F)ccc(F)c4F)c3)nc(N3CCN[C@@H](CF)C3)c12 [Example 237, {4-[4-((R)-3-Fluoromethyl-piperazin-1-yl)-5-methoxy-pyrido[3,4-d]pyrimidin-2-yl]-pyridin-2-yl}-(2,3,6-trifluoro-phenyl)-amine] |
| < 100 | c1ccc2cc(Nc3cc(-c4nc(N5CCNCC5)c5c(C6CC6)cncc5n4)ccn3)ccc2c1 [Example 2050, [4-(5-Cyclopropyl-4-piperazin-1-yl-pyrido[3,4-d]pyrimidin-2-yl)-pyridin-2-yl]-naphthalen-2-yl-amine] |
| < 100 | CC(C)(C)c1cc2c(-c3nc(N4CCNCC4)c4c(C5CC5)cncc4n3)c(Cl)cnc2[nH]1 [Example 1229, 2-(2-tert-Butyl-5-chloro-1H-pyrrolo[2,3-b]pyridin-4-yl)-5-cyclopropyl-4-piperazin-1-yl-pyrido[3,4-d]pyrimidine] |
| 1000 to 10000 | CN(C)c1ncc(Cl)c2c(N3CCNCC3)nc(-c3ccncc3)nc12 [Example 142, 5-chloro-N,N-dimethyl-4-(piperazin-1-yl)-2-(pyridin-4-yl)pyrido[3,4-d]pyrimidin-8-amine] |
| < 100 | COCc1cc2c(-c3nc(N4CCNCC4)c4c(C5CC5)cncc4n3)ccnc2[nH]1 [Example 2075, 5-Cyclopropyl-2-(2-methoxymethyl-1H-pyrrolo[2,3-b]pyridin-4-yl)-4-piperazin-1-yl-pyrido[3,4-d]pyrimidine] |
| 100 to 1000 | CN[C@H](CNc1nc(-c2ccncc2)nc2cnccc12)Cc1ccccc1 [Example 80, methyl[(2S)-1-phenyl-3-{[2-(pyridin-4-yl)pyrido[3,4-d]pyrimidin-4-yl]amino}propan-2-yl]amine] |
| 100 to 1000 | c1ccc(Nc2cc(-c3nc(NC[C@@H]4CCCN4)c4c(C5CC5)cncc4n3)ccn2)cc1 [Example 697, [5-Cyclopropyl-2-(2-phenylamino-pyridin-4-yl)-pyrido[3,4-d]pyrimidin-4-yl]-(S)-1-pyrrolidin-2-ylmethyl-amine] |
| < 100 | c1cc(-c2nc(N3CCNCC3)c3c(C4CC4)cncc3n2)cc(N[C@@H]2C[C@H]3CC[C@@H]2C3)n1 [Example 824, (1R,2R,4S)-Bicyclo[2.2.1]hept-2-yl-[4-(5-cyclopropyl-4-piperazin-1-yl-pyrido[3,4-d]pyrimidin-2-yl)-pyridin-2-yl]-amine] |
| < 100 | Cn1cc(CNc2cc(-c3nc(N4CCNCC4)c4c(C5CC5)cncc4n3)ccn2)cn1 [Example 758, [4-(5-Cyclopropyl-4-piperazin-1-yl-pyrido[3,4-d]pyrimidin-2-yl)-pyridin-2-yl]-(1-methyl-1H-pyrazol-4-ylmethyl)-amine] |
| < 100 | c1ccc2sc(Nc3cc(-c4nc(N5CCNCC5)c5c(C6CC6)cncc5n4)ccn3)nc2c1 [Example 2045, Benzothiazol-2-yl-[4-(5-cyclopropyl-4-piperazin-1-yl-pyrido[3,4-d]pyrimidin-2-yl)-pyridin-2-yl]-amine] |
| 100 to 1000 | CNc1nc(-c2ccnc(Nc3cccc(N4CCNCC4)c3)c2)nc2cncc(OC)c12 [Example 500, {5-Methoxy-2-[2-(3-piperazin-1-yl-phenylamino)-pyridin-4-yl]-pyrido[3,4-d]pyrimidin-4-yl}-methyl-amine] |
| < 100 | COc1cncc2nc(-c3ccnc(NC(=O)Cc4cccc(Cl)c4)c3)nc(N3CCNCC3)c12 [Example 370, 2-(3-Chloro-phenyl)-N-[4-(5-methoxy-4-piperazin-1-yl-pyrido[3,4-d]pyrimidin-2-yl)-pyridin-2-yl]-acetamide] |
| 1000 to 10000 | COc1cncc2nc(-c3ccnc(Nc4cc(C#N)ccn4)c3)nc(N3CCC[C@@H](O)C3)c12 [Example 429, 2-{4-[4-((R)-3-Hydroxy-piperidin-1-yl)-5-methoxy-pyrido[3,4-d]pyrimidin-2-yl]-pyridin-2-ylamino}-isonicotinonitrile] |
